Assay results published in US8334261B2, “Osteopenia animal model” (Oriental Yeast Co., Ltd., priority 2006, dated 2012).

Assays:
Format in all cases: in vivo, mouse
[1] = tested on: 7-week-old female C57BL/6N mice; assay: Single-dose administration of GST-RANKL; details: for femur bone density decrease vs control: single dose
Method: The bone resorption markers and the osteogenesis markers in the serum were measured 12, 24, and 48 hours thereafter. Blood sampling was carried out before and immediately after GST-RANKL administration and 2, 4, 8, 12, 24, 48, and 72 hours after administration, followed by measurement of the serum human RANKL concentration by ELISA. In addition, 24 and 48 hours after administration, the femur bone density was measured with pQCT.

[2] = tested on: GST-RANKL-administered 7-week-old female C57BL/6 mice; assay: Comparison of a plurality of bisphosphonates in GST-RANKL mice; details: for femur bone density decrease vs PBS group: GST-RANKL 1 mg/kg 3 times
Method: GST-RANKL was intraperitoneally administered 3 times at 1 mg/kg every 24 hours. The femur, tibia, and serum were collected from each mouse 1.5 hours after the 3rd GST-RANKL administration. Measurement of TRAP-5b, calcium (Ca), and alkaline phosphatase (ALP) in the serum was carried out. Each femur was subjected to bone density measurement with pQCT and image analysis with micro CT.

[3] = tested on: GST-RANKL-administered 7-week-old female C57BL/6N mice; assay: Evaluation of a bone mass increase with low-dose PTH in GST-RANKL mice; details: GST-RANKL 1 mg/kg i.p. 2 times
Method: GST-RANKL was intraperitoneally administered 2 times to groups of 7-week-old female C57BL/6N mice at 1 mg/kg every 24 hours. PTH was subcutaneously administered thereto at 40 or 80 μg/kg from 24 hours after the 2nd administration every 24 hours for 10 consecutive days. In addition, PBS was administered to a group serving as the control group for the GST-RANKL and PTH administration groups for comparison. The serum and femur were collected from each mouse 24 hours after the end of administration for 10 days.
The serum collected from each mouse was subjected to measurement of serum bone resorption markers (Ca and TRAP-5b) and an osteogenesis marker (ALP). Each femur was subjected to measurement of the total bone density, the cortical bone density, the cortical bone thickness, the cortical bone mineral content, and the cortical bone density in the diaphysis with pQCT at points 0.6, 0.8, and 1.0 mm […] the distal growth plate on the proximal side. In addition, image analysis was carried out with micro CT.

[4] = tested on: female C57BL/6N mice; assay: Producing OVX mice in a short period of time (GST-RANKL plus ovariectomy)
Method: 7-week-old female C57BL/6N mice were reared for 25 days. Then, GST-RANKL was intraperitoneally administered twice thereto at 1 mg/kg every 24 hours. Ovariectomy was carried out 24 hours after the 2nd administration. Further, the femur, tibia, and serum were collected from each mouse 24 hours after ovariectomy. The obtained samples were compared with the samples obtained from a group that was reared for 4 weeks after ovariectomy. In addition, PBS was administered to control groups for comparison with GST-RANKL administration groups. The PBS administration groups were subjected to sham operation (Sham) for comparison with the groups subjected to ovariectomy.
Regarding bone metabolism markers, TRAP-5b, calcium (Ca), and alkaline phosphatase (ALP) in the serum were measured. Each femur was subjected to bone density measurement with pQCT and image analysis with micro CT. After the initiation of rearing, the date of implementation of OVX or sham operation was expressed as “day X.”

[5] = tested on: GST-RANKL-administered 7-week-old female C57BL/6 mice; assay: Drug evaluation with bisphosphonate (risedronate) in GST-RANKL mice; details: for femur bone density decrease vs PBS group: RANKL alone
Method: Risedronate was separately administered via a subcutaneous route to groups of 7-week-old female C57BL/6 mice at doses of 3, 10, and 30 μg/kg every 24 hours from the day before GST-RANKL administration to the end of the experimentation. The femur and serum were collected from each mouse 1.5 hours after the 3rd administration of GST-RANKL. Measurement of TRAP-5b, calcium (Ca), and alkaline phosphatase (ALP) was carried out. Each femur was subjected to bone density measurement and image analysis with the use of pQCT.

[6] = tested on: 7-week-old female C57BL/6 mice; assay: Administration of GST-RANKL for 7 consecutive days
Method: GST-RANKL was intraperitoneally administered to groups of 7-week-old female C57BL/6 mice at 2 mg/kg/day for 7 consecutive days. The serum and femur were collected from each mouse 1.5 hours after the 7th administration. The serum and femur obtained from each mouse were subjected to measurement of serum markers and bone density measurement with pQCT, respectively.

[7] = tested on: 7-week-old female C57BL/6N mice; assay: Evaluation of a bone mass increase with PTH (GST-RANKL, ovariectomy); details: for femur bone density decrease vs PBS+Sham: GST-RANKL+Sham
Method: GST-RANKL was administered twice to groups of 7-week-old female C57BL/6N mice at 1 mg/kg every 24 hours. Ovariectomy was performed 24 hours after the 2nd administration. In addition, parathyroid hormone (PTH) was subcutaneously administered thereto at 160 μg/kg from 24 hours after the ovariectomy for 10 consecutive days. Further, a group obtained by PBS administration and sham operation (Sham) was designated as a control group for comparison. The serum markers and the femur bone density were measured.

GST-RANKL: fused protein of Glutathione S-transferase with human RANKL residues 140-317, expressed in Escherichia coli, 47.0 kDa
serum ALP concentration decrease ([1]; single dose 1 mg/kg): approximately 30% | serum Ca concentration ([1]; single dose 1 mg/kg i.p.): no changes | serum human RANKL concentration ([1]; single dose 1 mg/kg i.p., 24 hours later): undetectable | time of peak serum human RANKL concentration after administration ([1]; single dose 1 mg/kg i.p., ELISA): 4 h | serum TRAP-5b concentration, fold as high as control ([1]; single dose 1 mg/kg, 12 hours after administration): approximately 1.7 fold | femur bone density decrease vs control ([1]; 24 hours, 0.6 mm): approximately 4% | femur bone density decrease vs control ([1]; 24 hours, 0.8 mm): approximately 9% | femur bone density decrease vs control ([1]; 24 hours, 1.0 mm): approximately 12% | femur bone density decrease vs control ([1]; 48 hours, 0.6 mm): approximately 5% | femur bone density decrease vs control ([1]; 48 hours, 0.8 mm): approximately 9% | femur bone density decrease vs control ([1]; 48 hours, 1.0 mm): approximately 15% | femur bone density decrease vs PBS group ([2]; 0.6 mm): 7% | femur bone density decrease vs PBS group ([2]; 0.8 mm): 13% | femur bone density decrease vs PBS group ([2]; 1.0 mm): 18% | serum TRAP-5b concentration increase ([2]; GST-RANKL 1 mg/kg i.p. 3 times, no significant difference): approximately 40% | cortical bone density in the diaphysis, decrease vs PBS control [3]: 3% | serum ALP concentration increase vs PBS+Sham (day 27) group ([4]; GST-RANKL administration OVX (day 27) group): approximately 40% | femur bone density decrease vs PBS+Sham (day 27) ([4]; GST-RANKL+OVX (day 27), 0.6 mm): approximately 4% | femur bone density decrease vs PBS+Sham (day 27) ([4]; GST-RANKL+OVX (day 27), 0.8 mm): approximately 13% | femur bone density decrease vs PBS+Sham (day 27) ([4]; GST-RANKL+OVX (day 27), 1.0 mm): approximately 15% | femur bone density decrease vs PBS+Sham (day 27) ([4]; GST-RANKL+Sham (day 27), 0.6 mm): approximately 7% | femur bone density decrease vs PBS+Sham (day 27) ([4]; GST-RANKL+Sham (day 27), 0.8 mm): approximately 14% | femur bone density decrease vs PBS+Sham (day 27) ([4]; GST-RANKL+Sham (day 27), 1.0 mm): approximately 16% | serum TRAP-5b concentration, fold as high as PBS+Sham (day 27) group ([4]; every GST-RANKL administration group, 1 mg/kg i.p. twice, no significant difference): approximately 1.8 fold | serum Ca concentration ([5]; GST-RANKL 3 times): did not obviously vary | serum TRAP-5b concentration, fold as high ([5]; RANKL administration): approximately 2 fold | femur bone density decrease vs PBS group ([5]; 0.6 mm): 27% | femur bone density decrease vs PBS group ([5]; 0.8 mm): 35% | femur bone density decrease vs PBS group ([5]; 1.0 mm): 35% | femur bone density decrease vs control ([6]; 2 mg/kg/day 7 days, 0.6 mm): approximately 21% | femur bone density decrease vs control ([6]; 2 mg/kg/day 7 days, 0.8 mm): approximately 32% | femur bone density decrease vs control ([6]; 2 mg/kg/day 7 days, 1.0 mm): approximately 47% | serum TRAP-5b concentration increase ([6]; 2 mg/kg/day 7 days, no significant difference): approximately 30% | serum ALP concentration increase ([6]; 2 mg/kg/day 7 days, p<0.02): approximately 30% | serum Ca concentration increase ([6]; 2 mg/kg/day i.p. 7 consecutive days, no significant difference): approximately 20% | femur bone density vs PBS+Sham ([7]; GST-RANKL+OVX group): No bone density decrease was observed | femur bone density decrease vs PBS+Sham ([7]; 0.6 mm): approximately 17% | femur bone density decrease vs PBS+Sham ([7]; 0.8 mm): ~15% | femur bone density decrease vs PBS+Sham ([7]; 1.0 mm): ~18% | serum Ca concentration ([7]; every GST-RANKL administration group): no changes | serum ALP concentration decrease ([7]; every GST-RANKL administration group, 1 mg/kg twice): approximately 24%
